This note sets out measurements from US9328138B2 (priority 2011, dated 2016).

SMILES strings stand for the structures. Where a name gives a salt, the structure may show the parent alone.

Experiment [1] addresses T1, HCV genotype 1b (BK) NS3 modified enzyme with a R155K mutation (Hepatitis C virus genotype 1b, UniProt P26663, R1181K).
T1 construct: HCV genotype 1b (BK) NS3 modified enzyme
Kind of experiment: HCV NS3 protease time-resolved fluorescence (TRF) assay, genotype 1b R155K. Format: biochemical. The note with it: Ki 1b R155K. The essentials: (§1)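 IC50 values derive from 4-parameter fitting of TRF signal after a 6 h room-temperature cleavage of 25 nM peptide substrate by NS3/NS4A that had been pre-incubated 10 min with compound.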

Experiment [2] has as its target HCV NS3 protease genotype 3a (3A-1) (Hepatitis C virus genotype 3a, UniProt Q81258). Kind of experiment: HCV NS3 protease time-resolved fluorescence (TRF) assay, genotype 3a. The class given is biochemical. The note with it: Ki 3a. The essentials:
as §1

The mark [3] stands for this setting: genotype 1b (BK) NS3 R155K, single value.
The mark [4] stands for this setting: first of two values printed in the cell (not explained).
Where [5] appears, read: second of two values printed in the cell (not explained).

As for `C=C[C@@H]1C[C@]1(NC(=O)[C@@H]1C[C@@H]2CN1C(=O)[C@H](C(C)(C)C)NC(=O)O[C@@H]1C[C@H]1CCCCCc1c(nc3ccccc3c1OCC1CN(C)CCN1C)O2)C(=O)NS(=O)(=O)C1(C)CC1` (stereo partly drawn) [Example 140, (1ar,5S,8S,10R,22aR)-5-tert-butyl-17-[(1,4-dimethylpiperazin-2-yl)methoxy]-N-[(1R,2S)-2-ethenyl-1-{[(1-methylcyclopropyl)sulfonyl]carbamoyl}cyclopropyl]-3,6-dioxo-1,1a,3,4,5,6,9,10,18,19,20,21,22,22a-tetradecahydro-8H-7,10-methanocyclopropa[18,19][1,10,3,6] dioxadiazacyclononadecino [11,12-b]quinoline-8-carboxamide], the results for the Ki in experiment [1] (setting [3]) and in experiment [2] were 0.26 nM and 3 nM, respectively.
Regarding `C=C[C@@H]1C[C@]1(NC(=O)[C@@H]1C[C@@H]2CN1C(=O)[C@H](C(C)(C)C)NC(=O)O[C@@H]1C[C@H]1CCCCCc1c(nc3ccccc3c1OC1CCN(CC)CC1)O2)C(=O)NS(=O)(=O)C1(C)CC1` [Example 229, (1aR,5S,8S,10R,22aR)-5-tert-butyl-N-[(1R,2S)-2-ethenyl-1-{[(1-methylcyclopropyl)sulfonyl]carbamoyl}cyclopropyl]-17-[(1-ethylpiperidin-4-yl)oxy]-3,6-dioxo-1,1a,3,4,5,6,9,10,18,19,20,21,22,22a-tetradecahydro-8H-7,10-methanocyclopropa[18,19][1,10,3,6] dioxadiazacyclononadecino[11,12-b]quinoline-8-carboxamide], the Ki came out at 0.034 nM in experiment [1] (setting [3]) and 0.25 nM in experiment [2].
Regarding `C=C[C@@H]1CC1(NC(=O)[C@@H]1C[C@@H]2CN1C(=O)[C@H](C1CCCCC1)NC(=O)O[C@@H]1C[C@H]1CCCCCc1c(nc3ccccc3c1OCCCN1CC(F)C1)O2)C(=O)NS(=O)(=O)C1(C)CC1` (some centres unmarked) [Example 250], the Ki amounted to 0.024 nM in experiment [1] (setting [4]), 0.16 nM in experiment [1] (setting [5]) and 4.45 nM in experiment [2].
Turning to `C=C[C@@H]1C[C@]1(NC(=O)[C@@H]1C[C@@H]2CN1C(=O)[C@H](C(C)(C)C)NC(=O)O[C@@H]1CCC[C@H]1CC/C=C/Cc1c(nc3ccccc3c1OCCCN1CCOCC1)O2)C(=O)NS(=O)(=O)C1(C)CC1` [Example 91, (3aR,7S,10S,12R,21E,24aS)-7-tert-butyl-N-[(1R,2S)-2-ethenyl-1-{[(1-methylcyclopropyl)sulfonyl]carbamoyl}cyclopropyl]-19-[3-(morpholin-4-yl)propoxy]-5,8-dioxo-1,2,3,3a,5,6,7,8,11,12,20,23,24,24a-tetradecahydro-10H-9,12-methanocyclopenta[18,19][1,10,3,6] dioxadiazacyclononadecino[11,12-b] quinoline-10-carboxamide], the inhibition constant (Ki) came to 0.16 nM in experiment [1] (setting [3]) and 1 nM in experiment [2].
In the same order, the values of `C=C[C@@H]1C[C@]1(NC(=O)[C@@H]1C[C@@H]2CN1C(=O)[C@H](C(C)(C)C)NC(=O)O[C@@H]1C[C@H]1CCCCCc1c(nc3cc(C)ccc3c1OCCCN1CCOCC1)O2)C(=O)NS(=O)(=O)C1(C)CC1` [Example 147, (1aR,S,8S,10R,22aR)-5-tert-butyl-N-[(1R,2S)-2-ethenyl-1-{[(1-methylcyclopropyl)sulfonyl]carbamoyl}cyclopropyl]-14-methyl-17-[3-(morpholin-4-yl)propoxy]-3,6-dioxo-1,1a,3,4,5,6,9, 10,18,19,20,21,22,22a-tetradecahydro-8H-7,10-methanocyclopropa[18,19] [1,10,3,6]dioxadiaza cyclononadecino[11,12-b] quinoline-8-carboxamide] are 0.26 nM and 2.2 nM.
Regarding `C=C[C@@H]1C[C@]1(NC(=O)[C@@H]1C[C@@H]2CN1C(=O)[C@H](C1CCCCC1)NC(=O)O[C@@H]1C[C@H]1CCCCCc1c(nc3ccccc3c1OCCCN1CCOCC1)O2)C(=O)NS(=O)(=O)C1(C)CC1` [Example 240, 4-(3-{[(1aR,5S,8S,10R,22aR)-5-cyclohexyl-8-{[(1R,2S)-2-ethenyl-1-{[(1-methylcyclopropyl)sulfonyl]carbamoyl}cyclopropyl]carbamoyl}-3,6-dioxo-1,1a,3,4,5,6,9,10,18,19,20,21,22,22a-tetradecahydro-8H-7,10-methanocyclopropa[18,19][1,10,3,6]dioxadiazacyclononadecino[11,12-b]quinolin-17-yl]oxy}propyl)morpholin-4-ium formate], the inhibition constant Ki turned out to be 0.019 nM in experiment [1] (setting [4]), 0.28 nM in experiment [1] (setting [5]) and 2.9 nM in experiment [2].
Take `C=C[C@@H]1CC1(NC(=O)[C@@H]1C[C@@H]2CN1C(=O)[C@H](C(C)(C)C)NC(=O)O[C@@H]1C[C@H]1CCCCCc1c(nc3ccccc3c1OC1C3CNCC1COC3)O2)C(=O)NS(=O)(=O)C1(C)CC1` (single isomer, unassigned) [Example 259, trifluoroacetate]: the figures for the Ki in experiment [1] (setting [4]), in experiment [1] (setting [5]) and in experiment [2] were 0.03 nM, 0.35 nM and 7.4 nM, respectively.
In the case of `CC[C@@H]1C[C@]1(NC(=O)[C@@H]1C[C@@H]2CN1C(=O)[C@H](C1CCCC1)NC(=O)O[C@@H]1CCC[C@H]1CC/C=C/Cc1c(nc3ccccc3c1OC)O2)C(=O)NS(=O)(=O)C1CC1` [Example 5, (3aR,7S,10S,12R,21E,24aS)-7-cyclopentyl-N-{(1R,2R)-1-[(cyclopropylsulfonyl)carbamoyl]-2-ethylcyclopropyl}-19-methoxy-5,8-dioxo-1,2,3,3a, 5,6,7,8,11,12,20,23,24,24a-tetradecahydro-10H-9,12-methanocyclopenta[18,19][1,10,3,6] dioxadiazacyclononadecino[11,12-b]quinoline-10-carboxamide], the inhibition constant (Ki) came to 0.59 nM in experiment [1] (setting [3]) and 17 nM in experiment [2].
With `C=C[C@@H]1C[C@]1(NC(=O)[C@@H]1C[C@@H]2CN1C(=O)[C@H](C(C)(C)C)NC(=O)O[C@@H]1C[C@H]1CCCCCc1c(nc3c(OC)cccc3c1OCCN1CCOCC1)O2)C(=O)NS(=O)(=O)C1(C)CC1` [Example 127, (1aR,5S,8S,10R,22aR)-5-tert-butyl-N-[(1R,2S)-2-ethenyl-1-{[(1-methylcyclopropyl)sulfonyl]carbamoyl}cyclopropyl]-13-methoxy-17-[2-(morpholin-4-yl)ethoxy]-3,6-dioxo-1,1a,3,4,5,6.9, 10,18,19,20,21,22,22a-tetradecahydro-8H-7,10-methanocyclopropa [18,19][1,10,3,6]dioxadiaza cyclononadecino[11,12-b]quinoline-8-carboxamide], the Ki in experiment [1] (setting [3]) was 0.11 nM; in experiment [2], 2.1 nM.
With `C=C[C@@H]1C[C@]1(NC(=O)[C@@H]1C[C@@H]2CN1C(=O)[C@H](C(C)(C)C)NC(=O)O[C@@H]1C[C@H]1CCCCCc1c(nc3ccccc3c1OCCN1CCC(C)(O)CC1)O2)C(=O)NS(=O)(=O)C1(C)CC1` [Example 175, (1aR,5S,8S,10R,22aR)-5-tert-butyl-N-[(1R,2S)-2-ethenyl-1-{[(1-methylcyclopropyl)sulfonyl]carbamoyl}cyclopropyl]-17-[2-(4-hydroxy-4-methylpiperidin-1-yl)ethoxy]-3,6-dioxo-1,1a,3,4,5,6,9,10,18,19,20,21,22,22a-tetradeca hydro-8H-7,10-methanocyclopropa[18,19][1,10,3,6] dioxadiazacyclononadecino[11,12-b] quinoline-8-carboxamide], the results for the Ki in experiment [1] (setting [3]) and in experiment [2] were 0.091 nM and 0.89 nM, respectively.
